The values below come from patent US20250228937A1, “MEDICAMENT FOR TREATMENT AND/OR PREVENTION OF CANCER” (TORAY INDUSTRIES, INC., priority 2021, published 2025).

The conditions of test [1]: platinum-insensitive patient, cited from earlier work.
Test [2] concerns human breast cancer cells BT474. The test is described as follows: In vivo antitumor effect of anti-CAPRIN-1 antibody and etoposide in BT474 cancer-bearing mice (Comparative Example 1). Also noted: species or system NOD-SCID mice. The note with it: etoposide alone, four times, day 55 after bearing cancer. Here is the method: Next, an in vivo antitumor effect in a cancer-bearing mouse by a combined use of the anti-CAPRIN-1 antibody (anti-CAPRIN-1 humanized antibody #1) produced in Example 1 and etoposide (a topoisomerase inhibitor (topoisomerase II inhibitor) other than topotecan) was evaluated.
Specifically, the antitumor effect of the combination of the anti-CAPRIN-1 antibody and etoposide was studied using NOD-SCID mice in which human-derived cancer cells expressing CAPRIN-1 protein were subcutaneously transplanted. Human breast cancer cells BT474 were subcutaneously transplanted at 2×10^7 cells per mouse as a mixture with Matrigel (Sigma) and allowed to grow until a tumor became approximately 190 to 192 mm^3 to prepare cancer-bearing mice. […]
For a comparative control group, the same dose of the same anti-CAPRIN-1 antibody as above was administered once a week to cancer-bearing mice. […] After the start of administration, the sizes of cancers in the cancer-bearing mice were measured over time using calipers. The tumor volume of each individual was calculated according to a standard method using a calculation formula: (Length of the major axis of the tumor)×(Length of the minor axis of the tumor)^2×0.5, and the average of the treated group was calculated.

The target of the next test is T1, CAPRIN-1 protein (Homo sapiens, UniProt Q14444).
T1 construct: made in house
T1 sequence (Q14444 1-709): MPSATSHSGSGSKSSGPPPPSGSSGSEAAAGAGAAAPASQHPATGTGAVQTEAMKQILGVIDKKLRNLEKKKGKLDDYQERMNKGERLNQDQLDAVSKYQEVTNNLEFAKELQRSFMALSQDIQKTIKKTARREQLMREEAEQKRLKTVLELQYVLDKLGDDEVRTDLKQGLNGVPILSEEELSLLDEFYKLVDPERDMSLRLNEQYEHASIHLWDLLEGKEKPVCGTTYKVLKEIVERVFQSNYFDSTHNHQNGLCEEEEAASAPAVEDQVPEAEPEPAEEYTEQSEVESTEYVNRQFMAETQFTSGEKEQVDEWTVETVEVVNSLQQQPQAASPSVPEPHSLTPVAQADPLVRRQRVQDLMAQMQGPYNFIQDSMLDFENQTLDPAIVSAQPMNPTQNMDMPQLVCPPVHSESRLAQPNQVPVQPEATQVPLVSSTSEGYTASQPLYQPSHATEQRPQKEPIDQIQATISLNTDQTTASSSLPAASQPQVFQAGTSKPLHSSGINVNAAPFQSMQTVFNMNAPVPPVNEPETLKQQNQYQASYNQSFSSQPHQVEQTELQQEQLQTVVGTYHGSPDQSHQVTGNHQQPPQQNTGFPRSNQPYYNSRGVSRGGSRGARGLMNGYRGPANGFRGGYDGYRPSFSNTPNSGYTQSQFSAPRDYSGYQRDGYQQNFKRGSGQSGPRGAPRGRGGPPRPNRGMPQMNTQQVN
The test is described as follows: ELISA using CAPRIN-1 protein immobilized on a plate. The test is classed as binding. The method, then: One hundred (100) μg of a human CAPRIN-1 recombinant protein produced according to Example 3 of WO2010/016526 was mixed with an MPL+TDM adjuvant (Sigma) in an amount equivalent to that of the antigen protein. The mixture was used as an antigen solution per mouse. The antigen solution was administered intraperitoneally to 6-week-old Balb/c mice (Japan SLC Inc.) and then further administered 3 times […] every week for completion of immunization. A spleen was removed on day 3 after the final immunization and then ground between two sterilized glass slides. Spleen cells were obtained by repeating the following procedure three times: washing with PBS(−) (manufactured by Nissui Pharmaceutical Co., Ltd.), centrifuging at 1500 rpm for 10 minutes, and removing supernatant. The obtained spleen cells were mixed with mouse myeloma cell SP2/0 (purchased from ATCC) at a ratio of 10:1. The PEG solution prepared by mixing 200 μl of RPMI1640 medium containing 10% FBS heated at 37° C. and 800 μl of PEG1500 (Boehringer) was added to the cells. The solution was incubated for 5 minutes for cell fusion. Centrifugation was performed at 1700 rpm for 5 minutes to remove supernatants. […] Absorbance at 450 nm and absorbance at 595 nm were measured using an absorption spectrometer. As a result, a plurality of hybridomas producing antibodies with high absorbances were selected. […]
For orientation: An ELISA detects its analyte on a solid surface through an enzyme-linked reagent.

As to bevacizumab, the PFS in test [1] (bevacizumab combined with a chemotherapeutic versus monochemotherapy) is 6.7 months. Besides, in test [1] (bevacizumab combined with a chemotherapeutic), the “OS compared with monochemotherapy” value was “no significant difference”.

Regarding `COc1cc([C@@H]2c3cc4c(cc3[C@@H](O[C@@H]3O[C@@H]5CO[C@@H](C)O[C@H]5[C@H](O)[C@H]3O)[C@H]3COC(=O)[C@H]23)OCO4)cc(OC)c1O` [etoposide], the figures for the “tumor volume, assuming that the tumor volume of the negative control was 100%” value in test [2] (high dose 15 mg/kg once every four days) and in test [2] (low dose 5 mg/kg once every four days) were 79% and 92%, respectively.

B1: (ab): mouse monoclonal antibody against CAPRIN-1 described in WO2013/125630, heavy-chain variable region SEQ ID NO: 114, light-chain variable region SEQ ID NO: 115 (antibody, listed as Mus musculus, V domains shown)
VH: GPELVKPGASVKMSCKASGYTFTSYVMHWVKQKPGQGLEWIGYINPYNDGTKYNEKFKGKATLTSDKSSSTAYMELSSLTSEDSAVYYCARRYYYGSSGGYFDVWAQDHVRT
VL: DVQITQSPSYLAASPGETITINCRASKSISKYLAWYQEKPGKTNKLLIYSGSTLQSGIPSRFSGSGSGTDFTLTISSLEPEDFAMYYCQQHNEYPYTFGGGTKLEIKR
Consider B1, for which, in the test with CAPRIN-1 protein, the “reactivity with CAPRIN-1 protein” value is on record as “exhibiting reactivity”.
